# From patent publication US20100298141A1, “SUBSTITUTED PYRIDINE N-OXIDE HERBICIDES” (E. I. DU PONT DE NEMOURS AND COMPANY, priority 2007, published 2010)
# Assays:
# [1] = test system: Italian ryegrass; experiment: Test C pre-/postemergence test; format: in vivo, Lolium multiflorum
# Procedure, shortened: (§1)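 Test chemicals were formulated with surfactant in a non-phytotoxic solvent and sprayed both on freshly planted seeds (preemergence) and on 1- to 4-leaf plants of 2–18 cm (postemergence). Flooded-paddy pots received compound directly into 3 cm of standing water, maintained for the test.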
# [2] = test system: umbrella sedge; experiment: Test C flooded paddy test; format: in vivo, Cyperus difformis; conditions: Flood
# Procedure, shortened: (§2)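 Greenhouse pots flooded to 3 cm above soil at time of treatment received compound via the water, which stayed at that level.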
# [3] = test system: duck salad; experiment: Test C flooded paddy test; format: in vivo, Heteranthera limosa; conditions: Flood
# Procedure, shortened: as §2
# [4] = test system: woolly cupgrass; experiment: Test C pre-/postemergence test; format: in vivo, Eriochloa villosa; conditions: for Plant response rating (0 to 100), Cupgrass, Woolly: 250 g ai/ha
# Procedure, shortened: as §1
# [5] = test system: common (oilseed) sunflower; experiment: Test C pre-/postemergence test; format: in vivo, Helianthus annuus
# Procedure, shortened: as §1
# [6] = test system: wheat; experiment: Test C pre-/postemergence test; format: in vivo, Triticum aestivum
# Procedure, shortened: as §1
# [7] = test system: common ragweed; experiment: Test C pre-/postemergence test; format: in vivo, Ambrosia elation
# Procedure, shortened: as §1
# [8] = test system: corn; experiment: Test C pre-/postemergence test; format: in vivo, Zea mays; conditions: for Plant response rating (0 to 100), Corn: 250 g ai/ha
# Procedure, shortened: as §1
# [9] = test system: redroot pigweed; experiment: Test A pre-/postemergence greenhouse test; format: in vivo, Amaranthus retroflexus; conditions: for Pigweed plant response rating: 0 to 100 scale; for Plant response rating, Pigweed: 0 to 100 scale where 0 is no effect and 100 is complete control
# Procedure, shortened: (§3)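 Seeds sown in a loam soil–sand blend got a preemergence directed soil spray of compound in a non-phytotoxic solvent mixture containing surfactant. Postemergence sprays of the same formulation went at the same time onto plants 2–10 cm tall at the one- to two-leaf stage. Injury was scored visually against untreated controls after about ten days in the greenhouse.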
# [10] = test system: morningglory; experiment: Test A pre-/postemergence greenhouse test; format: in vivo, Ipomoea spp.; conditions: for Morningglory plant response rating: 0 to 100 scale; for Plant response rating, Morningglory: 0 to 100 scale where 0 is no effect and 100 is complete control
# Procedure, shortened: as §3
# [11] = test system: green foxtail; experiment: Test C pre-/postemergence test; format: in vivo, Setaria viridis; conditions: for Plant response rating (0 to 100), Foxtail, Green: 250 g ai/ha
# Procedure, shortened: as §1
# [12] = test system: crabgrass; experiment: Test A pre-/postemergence greenhouse test; format: in vivo, Digitaria sanguinalis; conditions: for Crabgrass, Large plant response rating: 0 to 100 scale; for Plant response rating, Crabgrass, Large: 0 to 100 scale where 0 is no effect and 100 is complete control
# Procedure, shortened: as §3
# [13] = test system: eastern black nightshade; experiment: Test C pre-/postemergence test; format: in vivo, Solanum ptycanthum
# Procedure, shortened: as §1
# [14] = test system: blackgrass; experiment: Test C pre-/postemergence test; format: in vivo, Alopecurus myosuroides; conditions: for Plant response rating (0 to 100), Blackgrass: 250 g ai/ha
# Procedure, shortened: as §1
# [15] = test system: wild oat; experiment: Test C pre-/postemergence test; format: in vivo, Avena fatua
# Procedure, shortened: as §1
# [16] = test system: Goosegrass; experiment: Test C pre-/postemergence test; format: in vivo, Eleusin indica; conditions: for Plant response rating (0 to 100), Goosegrass: 250 g ai/ha
# Procedure, shortened: as §1
# [17] = test system: yellow nutsedge; experiment: Test C pre-/postemergence test; format: in vivo, Cyperus esculentus
# Procedure, shortened: as §1
# [18] = 31 g ai/ha, Preemergence, scale 0 to 100
# [19] = 62 g ai/ha, preemergence, scale 0 (no effect) to 100 (complete control)
# [20] = preemergence, 125 g ai/ha, scale 0 (no effect) to 100 (complete control)
# [21] = 31 g ai/ha, scale 0 to 100 (0 no effect, 100 complete control)
# [22] = 62 g ai/ha, scale 0 to 100, 0 no effect, 100 complete control, 13 to 15 days
# [23] = 125 g ai/ha, scale 0 to 100, 0 no effect, 100 complete control, 13 to 15 days
# [24] = 250 g ai/ha, scale 0 to 100 (0 no effect, 100 complete control)
# [25] = Postemergence, 125 g ai/ha, 0 is no effect, 100 is complete control
# [26] = Postemergence, 500 g ai/ha, 0 is no effect, 100 is complete control
# [27] = Preemergence, 125 g ai/ha, 0 no effect, 100 complete control
# [28] = 62 g ai/ha, Preemergence, scale 0 to 100
# [29] = Preemergence, 31 g ai/ha, scale 0 to 100 (0 no effect, 100 complete control)
# [30] = 250 g ai/ha, scale 0 to 100, 0 no effect, 100 complete control, 13 to 15 days
compound,measurement,setting,value
Cn1nc(C(F)(F)F)c(CS(=O)(=O)c2ccc(Cl)c[n+]2[O-])c1OC(F)F [Compound 7],"Ryegrass, Italian plant response rating",[1]; [18],0
same,"Ryegrass, Italian plant response rating",[1]; [19],40
same,"Plant response rating (0 to 100), Ryegrass, Italian","[1]; Preemergence, 250 g ai/ha",50
same,"Ryegrass, Italian plant response rating",[1]; [20],50
same,"Plant response rating, Sedge, Umbrella",[2]; [21],0
same,"Plant response rating, Sedge, Umbrella",[2]; [22],40
same,"Plant response rating, Sedge, Umbrella",[2]; [23],55
same,"Plant response rating, Sedge, Umbrella",[2]; [24],60
same,"Plant response rating, Ducksalad",[3]; [21],30
same,"Plant response rating, Ducksalad",[3]; [22],50
same,"Plant response rating, Ducksalad",[3]; [23],75
same,"Plant response rating, Ducksalad",[3]; [24],80
same,"Cupgrass, Woolly plant response rating",[4]; [18],50
same,"Cupgrass, Woolly plant response rating",[4]; [19],70
same,"Plant response rating (0 to 100), Cupgrass, Woolly",[4]; Preemergence,100
same,"Cupgrass, Woolly plant response rating",[4]; [20],98
same,Sunflower plant response rating,[5]; [19],0
same,"Plant response rating (0 to 100), Sunflower","[5]; Preemergence, 250 g ai/ha",0
same,Sunflower plant response rating,[5]; [20],0
same,Wheat plant response rating,[6]; [19],10
same,"Plant response rating (0 to 100), Wheat","[6]; Preemergence, 250 g ai/ha",30
same,Wheat plant response rating,[6]; [20],20
same,Ragweed plant response rating,[7]; [18],0
same,Ragweed plant response rating,[7]; [19],80
same,"Plant response rating (0 to 100), Ragweed","[7]; Preemergence, 250 g ai/ha",100
same,Ragweed plant response rating,[7]; [20],100
same,Corn plant response rating,[8]; [18],0
same,Corn plant response rating,[8]; [19],0
same,"Plant response rating (0 to 100), Corn",[8]; Preemergence,30
same,Corn plant response rating,[8]; [20],10
same,Pigweed plant response rating,[9]; [25],60
same,Pigweed plant response rating,[9]; [26],70
same,Pigweed plant response rating,[9]; [27],100
same,"Plant response rating, Pigweed","[9]; Preemergence, 500 g ai/ha",100
same,Morningglory plant response rating,[10]; [26],10
same,"Plant response rating, Morningglory","[10]; Preemergence, 500 g ai/ha",30
same,"Foxtail, Green plant response rating",[11]; [18],40
same,"Foxtail, Green plant response rating",[11]; [19],60
same,"Plant response rating (0 to 100), Foxtail, Green",[11]; Preemergence,100
same,"Foxtail, Green plant response rating",[11]; [20],80
same,"Crabgrass, Large plant response rating",[12]; [25],70
same,"Crabgrass, Large plant response rating",[12]; [26],80
same,"Crabgrass, Large plant response rating",[12]; [27],90
same,"Plant response rating, Crabgrass, Large","[12]; Preemergence, 500 g ai/ha",90
same,Nightshade plant response rating,[13]; [18],0
same,Nightshade plant response rating,[13]; [19],50
same,"Plant response rating (0 to 100), Nightshade","[13]; Preemergence, 250 g ai/ha",95
same,Nightshade plant response rating,[13]; [20],50
same,Blackgrass plant response rating,[14]; [18],70
same,Blackgrass plant response rating,[14]; [19],70
same,"Plant response rating (0 to 100), Blackgrass",[14]; Preemergence,100
same,Blackgrass plant response rating,[14]; [20],85
same,"Oat, Wild plant response rating",[15]; [18],0
same,"Oat, Wild plant response rating",[15]; [19],30
same,"Plant response rating (0 to 100), Oat, Wild","[15]; Preemergence, 250 g ai/ha",70
same,"Oat, Wild plant response rating",[15]; [20],40
same,Goosegrass plant response rating,[16]; [18],100
same,Goosegrass plant response rating,[16]; [19],100
same,"Plant response rating (0 to 100), Goosegrass",[16]; Preemergence,100
same,Goosegrass plant response rating,[16]; [20],100
same,"Nutsedge, Yellow plant response rating",[17]; [18],0
same,"Nutsedge, Yellow plant response rating",[17]; [19],0
same,"Plant response rating (0 to 100), Nutsedge, Yellow","[17]; Preemergence, 250 g ai/ha",100
same,"Nutsedge, Yellow plant response rating",[17]; [20],98
CC(c1c(C(F)(F)F)nn(C)c1OCC(F)(F)F)S(=O)(=O)c1cccc[n+]1[O-] (racemic) [Compound 33],"Ryegrass, Italian plant response rating",[1]; [28],80
same,"Plant response rating, Ryegrass, Italian",[1]; [29],70
same,"Plant response rating, Sedge, Umbrella",[2]; [21],80
same,"Plant response rating, Sedge, Umbrella",[2]; [22],90
same,"Plant response rating, Sedge, Umbrella",[2]; [23],95
same,"Plant response rating, Sedge, Umbrella",[2]; [30],95
same,"Plant response rating, Ducksalad",[3]; [21],0
same,"Plant response rating, Ducksalad",[3]; [22],0
same,"Plant response rating, Ducksalad",[3]; [23],45
same,"Plant response rating, Ducksalad",[3]; [30],95
same,"Cupgrass, Woolly plant response rating",[4]; [28],98
same,"Plant response rating, Cupgrass, Woolly",[4]; [29],85
same,"Plant response rating (0 to 100), Cupgrass, Woolly",[4]; Preemergence,100
same,Sunflower plant response rating,[5]; [28],0
same,Wheat plant response rating,[6]; [28],50
same,"Plant response rating, Wheat",[6]; [29],30
same,Ragweed plant response rating,[7]; [28],10
same,Corn plant response rating,[8]; [28],90
same,"Plant response rating, Corn",[8]; [29],60
same,"Plant response rating (0 to 100), Corn",[8]; Preemergence,98
same,Corn plant response rating,[8]; [20],98
same,Pigweed plant response rating,[9]; [25],60
same,Pigweed plant response rating,[9]; [26],90
same,Pigweed plant response rating,[9]; [27],100
same,"Plant response rating, Pigweed","[9]; Preemergence, 500 g ai/ha",100
same,Morningglory plant response rating,[10]; [25],60
same,Morningglory plant response rating,[10]; [26],90
same,Morningglory plant response rating,[10]; [27],90
same,"Plant response rating, Morningglory","[10]; Preemergence, 500 g ai/ha",90
same,"Foxtail, Green plant response rating",[11]; [28],75
same,"Plant response rating, Foxtail, Green",[11]; [29],75
same,"Plant response rating (0 to 100), Foxtail, Green",[11]; Preemergence,100
same,"Crabgrass, Large plant response rating",[12]; [25],90
same,"Crabgrass, Large plant response rating",[12]; [26],90
same,"Crabgrass, Large plant response rating",[12]; [27],90
same,"Plant response rating, Crabgrass, Large","[12]; Preemergence, 500 g ai/ha",100
same,Nightshade plant response rating,[13]; [28],85
same,"Plant response rating, Nightshade",[13]; [29],70
same,Blackgrass plant response rating,[14]; [28],85
same,"Plant response rating, Blackgrass",[14]; [29],80
same,"Plant response rating (0 to 100), Blackgrass",[14]; Preemergence,100
same,Blackgrass plant response rating,[14]; [20],100
same,"Oat, Wild plant response rating",[15]; [28],65
same,"Plant response rating, Oat, Wild",[15]; [29],50
same,Goosegrass plant response rating,[16]; [28],100
same,"Plant response rating, Goosegrass",[16]; [29],100
same,"Plant response rating (0 to 100), Goosegrass",[16]; Preemergence,100
same,"Nutsedge, Yellow plant response rating",[17]; [28],100
same,"Plant response rating, Nutsedge, Yellow",[17]; [29],100
